# Columns and labels:
# [1] = test system: Vero-E6 and TMPRSS2-over-expressing Vero-E6 cells
# SARS-CoV-2 = assay type: cell-based
compound,measurement,setting,value
O=C(Oc1cncc(Cl)c1)c1cccc2[nH]ccc12 [GRL-0920S],toxicity,[1],without significant toxicity
same,block of cytopathic effect of SARS-CoV-2 (FIG. 2),SARS-CoV-2,significantly block the cytopathic effect
C=CCn1ccc2c(C(=O)Oc3cncc(Cl)c3)cccc21 [GRL-0820S],block of cytopathic effect of SARS-CoV-2 (FIG. 2),SARS-CoV-2,significantly block the cytopathic effect
